Drawing on ChEMBL document CHEMBL1129016, “Synthesis and in vitro evaluation of 3-substituted-1-azaanthraquinones” (Bioorg Med Chem Lett, 1996), this text covers IC50 and Resistance index for 7 compounds.

The test system of experiment [1] is MCF7. Kind of experiment: In vitro cytotoxic activity against human breast cancer cells (MCF-7) by using SRB assay after 72 hr of drug exposure. It is filed as functional, cell-based. Particulars: MCF7, 72 h. In general terms: In SRB staining, fixed cells bind dye roughly in proportion to their protein.
Experiment [2] has as its system SNU1. Put plainly: In vitro cytotoxic activity against SNU-1(stomach cancer cell) by using SRB assay after 72 hr of drug exposure. It is filed as functional, cell-based. Particulars: Homo sapiens, SNU1, 72 h.
The nature of experiment [3]: Resistance index expressed as the ratio of IC50 of resistant cell line (MCF-7/R) to IC50 of sensitive cell line (MCF-7). The format is functional.
Experiment [4] relates to MCF7. Kind of experiment: In vitro cytotoxic activity against subline resistant to doxorubicin (MCF-7/R) by using SRB assay after 72 hr of drug exposure. The format is functional, cell-based. Particulars: Homo sapiens, MCF7, 72 h.
Experiment [5] deals with SNU-354. Kind of experiment: In vitro cytotoxic activity against SNU-354(liver cancer cell) by using SRB assay after 72 hr of drug exposure. Particulars: Homo sapiens, SNU-354, 72 h. It is filed as functional, cell-based.

Values after ≈ are worked out from the molar mass of the structure shown. Bounds are passed on as bounds.

Broadly, the IC50 is the concentration at which inhibition is half-maximal. Low readings indicate greater potency in that assay, high ones weaker potency in that assay. With `O=C1c2ccccc2C(=O)c2ncc(CBr)cc21`, the IC50 in experiment [1] was 2.49 µg/mL (≈ 8.24 µM); in experiment [2], 0.56 µg/mL (≈ 1.85 µM); in experiment [4], 3.08 µg/mL (≈ 10.2 µM); in experiment [5], 0.89 µg/mL (≈ 2.95 µM). In addition, the Resistance index in experiment [3] is on record as 1.2.

As for `O=C(Nc1ccccc1)OCc1cnc2c(c1)C(=O)c1ccccc1C2=O`, the IC50 in experiment [1] worked out at 4.58 µg/mL (≈ 12.8 µM); in experiment [2], 14.9 µg/mL (≈ 41.6 µM); in experiment [4], 57.3 µg/mL (≈ 160 µM); in experiment [5] it was 15.2 µg/mL (≈ 42.4 µM). For the same compound, the Resistance index in experiment [3] amounted to 12.5.

In the case of `CC(C)NC(=O)OCc1cnc2c(c1)C(=O)c1ccccc1C2=O`, the IC50 in experiment [1] is more than 100 µg/mL; in experiment [2], more than 20 µg/mL; in experiment [4] it was more than 100 µg/mL; in experiment [5] it was more than 20 µg/mL.

`COc1cccc2c1C(=O)c1c(O)c3c(c(O)c1C2=O)C[C@@](O)(C(=O)CO)C[C@@H]3O[C@H]1C[C@H](N)[C@H](O)[C@H](C)O1` [DOXORUBICIN]: the IC50 came to 0.27 µg/mL (≈ 0.497 µM) in experiment [2] and 0.54 µg/mL (≈ 0.994 µM) in experiment [5].

Regarding `CC(=O)OCc1cnc2c(c1)C(=O)c1ccccc1C2=O`, the IC50 amounted to 6.7 µg/mL (≈ 23.8 µM) in experiment [1], 8.4 µg/mL (≈ 29.9 µM) in experiment [2], 49.9 µg/mL (≈ 177 µM) in experiment [4] and 11.8 µg/mL (≈ 42 µM) in experiment [5]. In experiment [3], the Resistance index is given as 7.4.

As to `O=C1c2ccccc2C(=O)c2ncc(CO)cc21`, the half-maximal inhibitory concentration (IC50) in experiment [1] was 6.66 µg/mL (≈ 27.8 µM); in experiment [2], 8.1 µg/mL (≈ 33.9 µM); in experiment [4], 17.7 µg/mL (≈ 74.1 µM); in experiment [5] it was 4.5 µg/mL (≈ 18.8 µM). Moreover, the Resistance index in experiment [3] worked out at 2.7.

For the compound `Cc1cnc2c(c1)C(=O)c1ccccc1C2=O`, the IC50 in experiment [1] is 18.3 µg/mL (≈ 82.1 µM); in experiment [2] it was 13.9 µg/mL (≈ 62.3 µM); in experiment [4] it was 69.1 µg/mL (≈ 309 µM); in experiment [5], more than 20 µg/mL. The Resistance index in experiment [3] amounted to 3.8.
